# Assay results from PubChem BioAssay (NCI).
#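 Five compound concentrations were applied to cells in 96-well plates for 48 hours; endpoints were derived by simple linear interpolation of the resulting dose-response curve. GI50 is the concentration that inhibits growth by half. TGI denotes the concentration required for complete inhibition of growth.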
# Experiments:
# Assay in all cases: inhibition of tumour cell growth, NCI panel, 48 h
# IGROV1 ovarian = test system: IGROV1 ovarian
# CCRF-CEM leukemia = test system: CCRF-CEM leukemia
# SF-539 CNS = test system: SF-539 CNS
# SNB-75 CNS = test system: SNB-75 CNS
# RXF 393 renal = test system: RXF 393 renal
# SK-MEL-28 melanoma = test system: SK-MEL-28 melanoma
# SN12C renal = test system: SN12C renal
# 786-0 renal = test system: 786-0 renal
# OVCAR-3 ovarian = test system: OVCAR-3 ovarian
# T-47D breast = test system: T-47D breast
# MDA-MB-231 breast = test system: MDA-MB-231 breast
# KM12 colon = test system: KM12 colon
# UACC-257 melanoma = test system: UACC-257 melanoma
# MDA-MB-468 breast = test system: MDA-MB-468 breast
# BT-549 breast = test system: BT-549 breast
# SF-295 CNS = test system: SF-295 CNS
# NCI/ADR-RES ovarian = test system: NCI/ADR-RES ovarian
# SF-268 CNS = test system: SF-268 CNS
# K-562 leukemia = test system: K-562 leukemia
# DU-145 prostate = test system: DU-145 prostate
# M14 melanoma = test system: M14 melanoma
# SK-MEL-2 melanoma = test system: SK-MEL-2 melanoma
# OVCAR-8 ovarian = test system: OVCAR-8 ovarian
# NCI-H226 lung = test system: NCI-H226 lung
# SK-OV-3 ovarian = test system: SK-OV-3 ovarian
# MDA-MB-435 = test system: MDA-MB-435
# ACHN renal = test system: ACHN renal
# MCF7 breast = test system: MCF7 breast
# HCT-15 colon = test system: HCT-15 colon
# A549 NSCLC = test system: A549 NSCLC
# HOP-62 NSCLC = test system: HOP-62 NSCLC
# OVCAR-4 ovarian = test system: OVCAR-4 ovarian
# SR leukemia = test system: SR leukemia
# RPMI-8226 leukemia = test system: RPMI-8226 leukemia
# TK-10 renal = test system: TK-10 renal
# NCI-H522 lung = test system: NCI-H522 lung
# HS 578T breast = test system: HS 578T breast
# MALME-3M melanoma = test system: MALME-3M melanoma
# NCI-H23 lung = test system: NCI-H23 lung
# SK-MEL-5 melanoma = test system: SK-MEL-5 melanoma
# MOLT-4 leukemia = test system: MOLT-4 leukemia
# HCT-116 colon = test system: HCT-116 colon
# NCI-H460 lung = test system: NCI-H460 lung
# CAKI-1 renal = test system: CAKI-1 renal
# EKVX NSCLC = test system: EKVX NSCLC
# COLO 205 colon = test system: COLO 205 colon
# A498 renal = test system: A498 renal
# U251 CNS = test system: U251 CNS
# HOP-92 NSCLC = test system: HOP-92 NSCLC
# UACC-62 melanoma = test system: UACC-62 melanoma
# UO-31 renal = test system: UO-31 renal
# HL-60(TB) leukemia = test system: HL-60(TB) leukemia
# OVCAR-5 ovarian = test system: OVCAR-5 ovarian
# LOX IMVI melanoma = test system: LOX IMVI melanoma
# HT29 colon = test system: HT29 colon
# SNB-19 CNS = test system: SNB-19 CNS
# PC-3 prostate = test system: PC-3 prostate
# SW-620 colon = test system: SW-620 colon
# HCC-2998 colon = test system: HCC-2998 colon
smiles,measurement,setting,value
O=C(CNc1nc(-c2ccccc2)cs1)Nc1ccccc1,GI50,IGROV1 ovarian,1.5 µM
same,TGI,IGROV1 ovarian,4.87 µM
same,GI50,CCRF-CEM leukemia,1.88 µM
same,TGI,CCRF-CEM leukemia,> 100 µM
same,GI50,SF-539 CNS,1.77 µM
same,TGI,SF-539 CNS,3.22 µM
same,GI50,SNB-75 CNS,1.05 µM
same,TGI,SNB-75 CNS,6.68 µM
same,GI50,RXF 393 renal,1.85 µM
same,TGI,RXF 393 renal,3.86 µM
same,GI50,SK-MEL-28 melanoma,2.56 µM
same,TGI,SK-MEL-28 melanoma,6.81 µM
same,GI50,SN12C renal,1.54 µM
same,TGI,SN12C renal,3.44 µM
same,GI50,786-0 renal,2.63 µM
same,TGI,786-0 renal,5.48 µM
same,GI50,OVCAR-3 ovarian,1.93 µM
same,TGI,OVCAR-3 ovarian,4.36 µM
same,GI50,T-47D breast,2.57 µM
same,TGI,T-47D breast,10.2 µM
same,GI50,MDA-MB-231 breast,1.93 µM
same,TGI,MDA-MB-231 breast,7.28 µM
same,GI50,KM12 colon,3.87 µM
same,TGI,KM12 colon,14.9 µM
same,GI50,UACC-257 melanoma,2.05 µM
same,TGI,UACC-257 melanoma,8.33 µM
same,GI50,MDA-MB-468 breast,1.55 µM
same,TGI,MDA-MB-468 breast,3.2 µM
same,GI50,BT-549 breast,2.25 µM
same,TGI,BT-549 breast,4.23 µM
same,GI50,SF-295 CNS,2.48 µM
same,TGI,SF-295 CNS,11.6 µM
same,GI50,NCI/ADR-RES ovarian,2.29 µM
same,TGI,NCI/ADR-RES ovarian,6.16 µM
same,GI50,SF-268 CNS,3.33 µM
same,TGI,SF-268 CNS,22.9 µM
same,GI50,K-562 leukemia,2.32 µM
same,TGI,K-562 leukemia,> 100 µM
same,GI50,DU-145 prostate,3.74 µM
same,TGI,DU-145 prostate,13.4 µM
same,GI50,M14 melanoma,1.52 µM
same,TGI,M14 melanoma,3.49 µM
same,GI50,SK-MEL-2 melanoma,1.73 µM
same,TGI,SK-MEL-2 melanoma,4.29 µM
same,GI50,OVCAR-8 ovarian,2.96 µM
same,TGI,OVCAR-8 ovarian,14.9 µM
same,GI50,NCI-H226 lung,1.94 µM
same,TGI,NCI-H226 lung,7.99 µM
same,GI50,SK-OV-3 ovarian,2.92 µM
same,TGI,SK-OV-3 ovarian,10.2 µM
same,GI50,MDA-MB-435,2.05 µM
same,TGI,MDA-MB-435,5.32 µM
same,GI50,ACHN renal,2.6 µM
same,TGI,ACHN renal,10.6 µM
same,GI50,MCF7 breast,1.4 µM
same,TGI,MCF7 breast,3.41 µM
same,GI50,HCT-15 colon,1.61 µM
same,TGI,HCT-15 colon,3.36 µM
same,GI50,A549 NSCLC,3.25 µM
same,TGI,A549 NSCLC,13.5 µM
same,GI50,HOP-62 NSCLC,2.17 µM
same,TGI,HOP-62 NSCLC,6.31 µM
same,GI50,OVCAR-4 ovarian,4.88 µM
same,TGI,OVCAR-4 ovarian,18.1 µM
same,GI50,SR leukemia,1.42 µM
same,TGI,SR leukemia,> 100 µM
same,GI50,RPMI-8226 leukemia,2.29 µM
same,TGI,RPMI-8226 leukemia,80.9 µM
same,GI50,TK-10 renal,4.64 µM
same,TGI,TK-10 renal,12.4 µM
same,GI50,NCI-H522 lung,1.53 µM
same,TGI,NCI-H522 lung,3.02 µM
same,GI50,HS 578T breast,3.04 µM
same,TGI,HS 578T breast,> 100 µM
same,GI50,MALME-3M melanoma,1.54 µM
same,TGI,MALME-3M melanoma,3.23 µM
same,GI50,NCI-H23 lung,1.48 µM
same,TGI,NCI-H23 lung,3.15 µM
same,GI50,SK-MEL-5 melanoma,1.62 µM
same,TGI,SK-MEL-5 melanoma,2.98 µM
same,GI50,MOLT-4 leukemia,1.83 µM
same,TGI,MOLT-4 leukemia,7.46 µM
same,GI50,HCT-116 colon,1.81 µM
same,TGI,HCT-116 colon,5.75 µM
same,GI50,NCI-H460 lung,2.94 µM
same,TGI,NCI-H460 lung,11.8 µM
same,GI50,CAKI-1 renal,2.2 µM
same,TGI,CAKI-1 renal,10.6 µM
same,GI50,EKVX NSCLC,1.58 µM
same,TGI,EKVX NSCLC,3.14 µM
same,GI50,COLO 205 colon,2.16 µM
same,TGI,COLO 205 colon,4.57 µM
same,GI50,A498 renal,11.1 µM
same,TGI,A498 renal,23.5 µM
same,GI50,U251 CNS,1.56 µM
same,TGI,U251 CNS,3.34 µM
same,GI50,HOP-92 NSCLC,3.47 µM
same,TGI,HOP-92 NSCLC,16.5 µM
same,GI50,UACC-62 melanoma,1.14 µM
same,TGI,UACC-62 melanoma,2.58 µM
same,GI50,UO-31 renal,2.37 µM
same,TGI,UO-31 renal,12.9 µM
same,GI50,HL-60(TB) leukemia,1.83 µM
same,TGI,HL-60(TB) leukemia,6.67 µM
same,GI50,OVCAR-5 ovarian,2.95 µM
same,TGI,OVCAR-5 ovarian,7.03 µM
same,GI50,LOX IMVI melanoma,1.21 µM
same,TGI,LOX IMVI melanoma,2.7 µM
same,GI50,HT29 colon,2.06 µM
same,TGI,HT29 colon,4.08 µM
same,GI50,SNB-19 CNS,1.82 µM
same,TGI,SNB-19 CNS,4.16 µM
same,GI50,PC-3 prostate,2.96 µM
same,TGI,PC-3 prostate,30.3 µM
same,GI50,SW-620 colon,2.46 µM
same,TGI,SW-620 colon,6.04 µM
same,GI50,HCC-2998 colon,1.77 µM
same,TGI,HCC-2998 colon,3.88 µM
